Assay results reported in PMC9298182, “De novo design of type II topoisomerase inhibitors as potential antimicrobial agents targeting a novel binding region” (RSC Medicinal Chemistry, 2022).
Read-outs that look alike come from different tables or passages of the source. Marks after values point to notes of the source that are not given here.

How the values were obtained:
[1] = system: E. coli; design: method as in PMID 28507124; conditions: different E. coli strain, printed in column E. coli K12 MG1655; cited from earlier work
[2] = system: S. aureus; conditions: different S. aureus strain, printed in column S. aureus NCIMB 50080; cited from earlier work
[3] = target: T1, E. coli topoisomerase IV (Escherichia coli, UniProt P0AFI2+P20083); design: method as in PMID 28507124; conditions: read-out: E. coli topo IV IC50; cited from earlier work
[4] = target: E. coli DNA gyrase (Escherichia coli, UniProt P0AES4+P0AES6); assay: E. coli DNA gyrase supercoiling inhibition assay (gel-based); type: biochemical; conditions: for IC50: supercoiling assay, mean of 2 or 3 experiments, semi-quantitative
[5] = system: E. coli K12 MG1655 S83L; assay: MIC, broth microdilution, fluoroquinolone mutant strain; type: cell-based; conditions: Escherichia coli, MG1655, read-out: E. coli K12 MG1655 S83L MIC
[6] = system: S. aureus NCIMB 50080; assay: MIC, broth microdilution; type: cell-based
[7] = target: T1, E. coli topoisomerase IV; assay: biochemical; type: biochemical
[8] = system: E. coli K12 MG1655; assay: MIC, broth microdilution; type: cell-based; conditions: Escherichia coli, MG1655, read-out: E. coli K12 MG1655 MIC
[9] = Staphylococcus aureus, NCIMB50080; read-out: S. aureus NCIMB 50080 MIC

In the case of `Cl.NCC(NC(=O)c1cccc(-c2cccs2)c1)c1ccc(O)cc1` (stereo not drawn) [Compound 1], the “E. coli MIC” value [1] is given as 8 ^a μg mL^−1, the “S. aureus MIC” value [2] is given as 8 ^a μg mL^−1 and the IC50 [3] is given as greater than 540 µM.

With `NC[C@H](NC(=O)c1cccc(-c2ccccc2)c1)c1ccccc1` [Compound 2] the IC50 [4] was 60 µM.

`COc1ccccc1-c1cccc(C(=O)N[C@@H](CN)c2ccccc2)c1` [Compound 3] gave an IC50 [4] of 20 µM.

With `CCOc1cccc(-c2cccc(C(=O)N[C@@H](CN)c3ccccc3)c2)c1` [Compound 4] the IC50 [4] was 20 µM.

In the case of `Cl.NC[C@H](NC(=O)c1cccc(-c2ccccc2C(F)(F)F)c1)c1ccccc1` [Compound 5], the MIC [5] is reported as 32 µg/mL, the MIC [6, 9] is reported as 16 µg/mL and the IC50 [4] is reported as 21 µM. The IC50 [7] was greater than 100 µM and the MIC [8] was 32 µg/mL.

In the case of `CCOc1cccc(-c2cccc(C(=O)N[C@@H](CN)c3ccccc3)c2)c1F.Cl` [Compound 6, N-[(1R)-2-amino-1-phenylethyl]-3'-ethoxy-2'-fluoro-[1,1'-biphenyl]-3-carboxamide hydrochloride], the MIC [5] is reported as 64 µg/mL, the MIC [6, 9] is reported as 32 µg/mL and the “fold increase in binding affinity against gyrase vs. unsubstituted 2” value ([4]; relative to compound 2) is reported as 5 fold. The IC50 [4] was 12 µM, the IC50 [7] was greater than 100 µM and the MIC [8] was 64 µg/mL.

`CCOc1cc(-c2cccc(C(=O)N[C@@H](CN)c3ccccc3)c2)ccc1F.Cl` [Compound 7] showed an MIC [5] of 32 µg/mL, an MIC [6, 9] of 16 µg/mL and a melting point of 219 to 221 °C. The IC50 [4] was 17 µM, the IC50 [7] was 64 µM and the “fold more potent against gyrase than topo IV” value ([7]; E. coli gyrase vs. E. coli topo IV) was roughly 4 fold. For the same molecule, the MIC [8] was 32 µg/mL.

`NC[C@H](NC(=O)c1cccc(-c2cccc(O)c2)c1)c1ccccc1` [Compound 8] gave an IC50 [4] of 46 µM.

`Cl.NC[C@H](NC(=O)c1cccc(-c2ccccc2Cl)c1)c1ccccc1` [Compound 9] gave a melting point of 160.5 to 163 °C and an IC50 [4] of 35 µM.

`NC[C@H](NC(=O)c1cccc(-c2cccc(Cl)c2)c1)c1ccccc1` [Compound 10] gave an IC50 [4] of 39 µM.

Molecule `Cl.NC[C@H](NC(=O)c1cccc(-c2cccc([N+](=O)[O-])c2)c1)c1ccccc1` [Compound 11] has an MIC [5] greater than 128 µg/mL, an MIC ([6]; Staphylococcus aureus, NCIMB50080, read-out: S. aureus NCIMB 50080 MIC) greater than 128 µg/mL and an IC50 [4] of 73 µM. For the same molecule, the IC50 [7] was 94 µM and the MIC [8] was greater than 128 µg/mL.

For `CC(=O)c1cccc(-c2cccc(C(=O)N[C@@H](CN)c3ccccc3)c2)c1.Cl` [Compound 12], the melting point was ~ 238 °C (dec.) and the IC50 [4] was 42 µM.

`COC(=O)c1cccc(-c2cccc(C(=O)N[C@@H](CN)c3ccccc3)c2)c1.Cl` [Compound 13] gave a melting point of 212 to 215 °C and an IC50 [4] of 24 µM.

Work on `COC(=O)c1ccccc1-c1cccc(C(=O)N[C@@H](CN)c2ccccc2)c1.Cl` [Compound 14] yielded a melting point of 145 to 147 °C and an IC50 [4] of 41 µM.

In the case of `Cl.NC[C@H](NC(=O)c1cccc(Br)c1)c1ccccc1` [Compound 15], the “fold drop in gyrase activity compared to 2” value ([4]; relative to compound 2) is reported as “at least 3 fold” and the IC50 [4] is reported as greater than 200 µM.

`Cc1ccccc1C(=O)N[C@@H](CN)c1ccccc1` [Compound 21] gave an IC50 [4] greater than 100 µM.

With `Cc1cccc(C(=O)N[C@@H](CN)c2ccccc2)c1` [Compound 22] the IC50 [4] was greater than 100 µM.

In the case of `Cc1ccc(C(=O)N[C@@H](CN)c2ccccc2)cc1.Cl` [Compound 23], the “gyrase inhibition judged visually from gel” value ([4]; at 100 µM, Fig. S2) is reported as “some inhibition” and the IC50 [4] is reported as greater than 100 µM.

For `COc1ccccc1-c1cc(C(=O)N[C@@H](CN)c2ccccc2)ccc1C` [Compound 24], the IC50 [4] was 153 µM.

`CCOc1cccc(-c2cc(C(=O)N[C@@H](CN)c3ccccc3)ccc2C)c1` [Compound 25] gave an IC50 [4] of 63 µM.

With `CCOc1cc(C)cc(-c2cc(C(=O)N[C@@H](CN)c3ccccc3)ccc2C)c1` [Compound 26] the IC50 [4] was 56 µM.

`NC[C@H](NC(=O)c1cncc(-c2ccccc2Cl)c1)c1ccccc1` [Compound 27] gave an IC50 [4] of 35 µM.

Work on `Cl.NC[C@@H](NC(=O)c1cccc(-c2ccccc2)c1)c1ccccc1` [Compound 28] yielded a melting point of 205 to 207 °C and an IC50 [4] of 76 µM.

Molecule `COc1ccccc1-c1cccc(C(=O)N[C@H](CN)c2ccccc2)c1` [Compound 29] has an IC50 [4] of 36 µM.

In the case of `CCOc1cccc(-c2cccc(C(=O)N[C@H](CN)c3ccccc3)c2)c1.Cl` [Compound 30], the “fold drop in gyrase activity of (S)-enantiomer vs. (R)-enantiomer” value ([4]; 30 vs. 4) is reported as 9 fold and the IC50 [4] is reported as 180 µM.

In the case of `COc1ccccc1-c1cccc(C(=O)NC(CN)c2cccc(O)c2)c1.Cl` (stereo not drawn) [Compound 31], the MIC [5] is reported as greater than 128 µg/mL, the MIC [6, 9] is reported as 128 µg/mL and the IC50 [4] is reported as 41 µM. For the same molecule, the IC50 [7] was greater than 100 µM and the MIC [8] was greater than 128 µg/mL.

For `COc1ccccc1-c1cccc(C(=O)NC(CN)c2ccc(O)cc2)c1` (stereo not drawn) [Compound 32], the IC50 [4] was 45 µM.

In the case of `CCOc1cccc(-c2cccc(C(=O)NC(CN)c3cccc(O)c3)c2)c1` (stereo not drawn) [Compound 33], the IC50 [4] is reported as 41 µM.

With `CCOc1cccc(-c2cccc(C(=O)NC(CN)c3cccc(O)c3)c2)c1F` (stereo not drawn) [Compound 34] the IC50 [4] was 62 µM.

Work on `CCOc1cccc(-c2cccc(C(=O)NC(CN)c3ccc(O)cc3)c2)c1F` (stereo not drawn) [Compound 35] yielded an IC50 [4] greater than 200 µM.
